Experimental data published in patent US20210338782A1, “STORAGE STABLE SOMATOSTATIN-DOPAMINE CHIMERIC COMPOUNDS AND SALT FORMS THEREOF” (Cydan II, Inc., priority 2019, published 2021).
Where a name gives a salt, the structure may show the parent alone.

How the values were obtained:
FIG. 6B = test: FIG. 6B
Description: Table printed on a drawing sheet, FIG. 6B
Footnotes: *N=2 with Animal 2 excluded.
First reader's note: Each Cmax and AUC0-t cell holds the value together with its SD; the sheet prints no units for Cmax or AUC0-t.

[1] = Time and temperature stability of lyophilized TBR-760 salts in sealed glass vials (visual appearance, HPLC); assay type: physicochemical; details: for salt form degraded: sealed glass vials, HPLC
Method: Lyophilized TBR-760 salts prepared as described above were assessed for stability by visual appearance and HPLC following initial production of the salt and following incubation of the salt at 20° C., 40° C., and 60° C. for 2, 4, and 8 weeks in sealed, glass vials. Changes in visual appearance of the salt were noted by evaluating the color of the substance following each incubation condition. Purity of the salt following each incubation condition was evaluated by HPLC. The number and quantity of degradation products were determined according to the number of absorbance peaks that resulted at different retention times and the size of the peaks.

[2] = Thermogravimetric analysis (TGA) of TBR-760 salt forms; assay type: physicochemical; details: between 110° C. and 200° C.
Method: Thermogravimetric analyses (TGA) were performed on all TBR-760 salt forms to evaluate thermal stability of each salt form. Studies were performed using a TGA-Q500 thermogravimetric analyzer (TA Instruments). The weight of each compound was measured while the temperature was increased at a ramp rate of 5.0° C. per minute from 25 to 400° C. […] The weight loss may be indicative of loss of adsorbed moisture, entrained solvent or volatile impurities. Decomposition of the compound appears to start at about 234° C. (sulfate salt), 245° C. (chloride salt), 252° C. (tosylate salt), and 255° C. (mesylate salt). For the acetate salt, a further ˜5% loss of weight between 110° C. and 200° C. was observed, indicating loss of volatile acetate ions over that temperature range (FIG. 8).

[3] = Solid state (thermolytic) stability of TBR-760 salt forms, open container, UPLC peak purity and appearance; assay type: physicochemical
Method: (§1) Each TBR-760 salt was further evaluated for thermolytic stability over time by setting up three different exposure conditions (25° C. at 60% relative humidity (RH); 40° C. at 75% RH; or 60° C. with open and closed container systems (open dish/closed dish). Approximately 50 mg of each salt form was weighed in a nitrogen-flushed glove box for use in the studies. All samples were stored at −20° C. in a good laboratory practice (GLP) freezer both before and after exposure to the indicated conditions.
(§2) The stability of each salt form was assessed by monitoring the post-exposure drug peak purity and by evaluating the post-exposure visual appearance of the salt. The samples were removed from the exposure conditions and allowed to equilibrate to ambient conditions for 15-20 mins. An appropriate amount of each sample was weighed for analysis and dissolved in diluent (deionized water containing 0.1% TFA) to obtain a stock concentration of 1 mg/mL. The stock solution was then diluted to 0.125 mg/mL in an HPLC vial using diluent and the samples were run on a Waters Acquity UPLC system using the parameters shown in Table 4.

[4] = Photostability of TBR-760 salt forms (ICH Q1B, visible and UV light), appearance and UPLC purity; assay type: physicochemical
Description: (§3) In order to evaluate the light sensitivity and stability of TBR-760 chimeric peptide salts, all five salt forms were exposed to ultraviolet (UV) and visible light according to International Council for Harmonisation of Technical Requirements for Pharmaceuticals for Human Use (ICH) guideline Q1B for photostability testing. In brief, a Caron 6540-1 photostability chamber unit with separate UV and light chambers was used for the studies. Visible light exposure was 1.2 million lux hours and UV exposure was 200 watt hours/square meter.
Samples were placed in clear, sealed vials and stored in the appropriate chamber alongside dark controls in amber colored vials wrapped in aluminum foil. Control samples were stored in sealed amber vials at −20° C. The appearance of exposed samples was examined visually before being analyzed via UPLC.

[5] = Thermostability of alternative salt forms of lanreotide and TBR-760 (UPLC); assay type: physicochemical
Method: as §1, §2
We conducted thermostability studies of lanreotide acetate substantially as described in Example 6. These experiments confirmed that lanreotide acetate is […] when exposed to increasing temperature and humidity conditions over time (FIG. 45). […] (FIG. 45). This degree of thermal and humidity instability is disfavored for a pharmaceutical agent, particularly one intended for patient self-administration at home.
To determine whether a thermostable salt form of TBR-760 could be manufactured, a salt exchange was performed as described in Example 1 to generate bromide and chloride salts of TBR-760. Lanreotide bromide and lanreotide chloride salts were also generated and assessed for thermostability to evaluate the effect of the salt form on compound stability and to compare stability of lanreotide and TBR-760 of each salt.
UPLC assays performed as described in Example 6 were further used to determine the number of degradants—and thus the number of impurities—in each sample. Results showing the purity assessment of each sample following thermostability studies are shown in FIGS. 48A-48B (lanreotide and TBR-760 acetate salts), 49A-49B (lanreotide and TBR-760 bromide salts), and 50A-50B (lanreotide and TBR-760 chloride salts).

[6] = Photostability of alternative salt forms of lanreotide and TBR-760; assay type: physicochemical; details: 1.2 million lux hours visible light or 200 watt hours/square meter UV light, versus control
Description: as §3
Photostability of lanreotide acetate, lanreotide bromide, lanreotide chloride, TBR-760 acetate, TBR-760 bromide and TBR760 chloride was tested according to the methods of Example 7. Four samples were prepared for each salt form: one control for each of the UV and visible light exposure conditions (controls isolated from light) and one sample for exposure to each of the UV and visible light conditions. For each sample, 2-5 mg of the salt was weighed into 3 mL clear serum vials and stoppered. Vials containing control samples were wrapped in aluminum foil.
Following exposure to visible and UV light, all lanreotide and TBR-760 salts were analyzed by UPLC as described in Example 7.

[7] = 25° C. at 60% RH, open container
[8] = 40° C. at 75% RH, open container
[9] = UPLC peak purity, 25° C. at 60% RH, open container
[10] = UPLC peak purity, 40° C. at 75% RH, open container
[11] = UPLC peak purity, 60° C., open dish

In the case of `CCCN1C[C@H](CSCC(=O)NCCCC[C@@H](NC(=O)CSC[C@@H]2C[C@@H]3c4cccc5[nH]cc(c45)C[C@H]3N(CCC)C2)C(=O)N[C@H]2CSSC[C@@H](C(=O)N[C@H](C(N)=O)[C@@H](C)O)NC(=O)[C@H](CC)NC(=O)[C@H](CCCCN)NC(=O)[C@@H](Cc3c[nH]c4ccccc34)NC(=O)[C@H](Cc3ccc(O)cc3)NC2=O)C[C@@H]2c3cccc4[nH]cc(c34)C[C@H]21` [TBR-760 Acetate*], the “Tmax (median in hr)” value (FIG. 6B) is reported as 24 h.

In the case of `CCCN1C[C@H](CSCC(=O)NCCCC[C@@H](NC(=O)CSC[C@@H]2C[C@@H]3c4cccc5[nH]cc(c45)C[C@H]3N(CCC)C2)C(=O)N[C@H]2CSSC[C@@H](C(=O)N[C@H](C(N)=O)[C@@H](C)O)NC(=O)[C@H](CC)NC(=O)[C@H](CCCCN)NC(=O)[C@@H](Cc3c[nH]c4ccccc34)NC(=O)[C@H](Cc3ccc(O)cc3)NC2=O)C[C@@H]2c3cccc4[nH]cc(c34)C[C@H]21` [TBR-760 Tosylate], the “Tmax (median in hr)” value (FIG. 6B) is reported as 30 h.

With `CCCN1C[C@H](CSCC(=O)NCCCC[C@@H](NC(=O)CSC[C@@H]2C[C@@H]3c4cccc5[nH]cc(c45)C[C@H]3N(CCC)C2)C(=O)N[C@H]2CSSC[C@@H](C(=O)N[C@H](C(N)=O)[C@@H](C)O)NC(=O)[C@H](CC)NC(=O)[C@H](CCCCN)NC(=O)[C@@H](Cc3c[nH]c4ccccc34)NC(=O)[C@H](Cc3ccc(O)cc3)NC2=O)C[C@@H]2c3cccc4[nH]cc(c34)C[C@H]21` [TBR-760 Mesylate] the “Tmax (median in hr)” value (FIG. 6B) was 30 h.

With `CCCN1C[C@H](CSCC(=O)NCCCC[C@@H](NC(=O)CSC[C@@H]2C[C@@H]3c4cccc5[nH]cc(c45)C[C@H]3N(CCC)C2)C(=O)N[C@H]2CSSC[C@@H](C(=O)N[C@H](C(N)=O)[C@@H](C)O)NC(=O)[C@H](CC)NC(=O)[C@H](CCCCN)NC(=O)[C@@H](Cc3c[nH]c4ccccc34)NC(=O)[C@H](Cc3ccc(O)cc3)NC2=O)C[C@@H]2c3cccc4[nH]cc(c34)C[C@H]21` [TBR-760 acetate, Dop2-D-Lys(Dop2)-cyclo[Cys-Tyr-D-Trp-Lys-Abu-Cys]-Thr-NH2] the “change in visual appearance” value ([1]; 4 weeks at 60° C.) was “from a white powder to a yellow powder”, the salt form degraded ([1]; 60° C. for 4 weeks) was 9.9% and the salt form degraded ([1]; 60° C. for 8 weeks) was “more than 16%”. The “TGA further loss of weight” value [2] was “approximately 5%”, the “Appearance, T = 2 wk” value [3, 7] was “White” and the “Appearance, T = 4 wk” value [3, 7] was “White”. For the same compound, the “Appearance, T = 3 d” value [3, 7] was “White”, the “stability compared with the other salt forms” value ([3]; 40° C. at 75% RH and 60° C., 2 and 4 weeks, listed as acetate salt) was “least stable of the salts tested” and the “Appearance, T = 2 wk” value [3, 8] was “White”. For the same compound, the “Appearance, T = 3 d” value [3, 8] was “White”, the “Appearance, T = 4 wk” value ([3]; 60° C., open dish) was “Pale Orange” and the “Appearance, T = 3 d” value ([3]; 60° C., open dish) was “White”. For the same compound, the “Purity, T = 2 wk” value [3, 9] was 98.16, the “Purity, T = 4 wk” value [3, 9] was 98.09 and the “Purity, T = 3 d” value [3, 9] was 98.52. The “Purity, T = 2 wk” value [3, 10] was 94.52, the “Purity, T = 4 wk” value [3, 10] was 92.37 and the “Purity, T = 3 d” value [3, 10] was 98.4. The “Purity, T = 2 wk” value [3, 11] was 89.7, the “Purity, T = 4 wk” value [3, 11] was 82.32 and the “Purity, T = 3 d” value [3, 11] was 96.66. The “Purity, Control” value ([3]; UPLC peak purity, control, stored at -20° C.) was 98.35, the “Appearance, Control” value ([3]; control, stored at -20° C.) was “White” and the “additional degradants in chromatogram versus control” value ([3]; two weeks at 60° C., open dish, UPLC, listed as acetate salt) was 17. The “Purity, UV-exposed” value ([4]; UPLC, UV 200 watt hours/square meter, clear sealed vial) was 96.16, the “Purity, Control” value ([4]; UPLC, control in sealed amber vial at -20° C.) was 98.35 and the “Purity, Dark Ctrl-UV” value ([4]; UPLC, dark control in UV chamber) was 98.42. For the same compound, the “Purity, Dark Crtl-Light” value ([4]; UPLC, dark control in visible light chamber) was 98.34, the “Purity, Light-exposed” value ([4]; UPLC, visible light 1.2 million lux hours, clear sealed vial) was 92.14 and the “Appearance, UV-exposed” value ([4]; UV 200 watt hours/square meter, clear sealed vial, listed as TBR-760 acetate salt) was “white to a pale yellow-brown color”. The “Appearance, Control” value ([4]; control in sealed amber vial at -20° C.) was “white”, the “Appearance, Dark Ctrl-UV” value ([4]; dark control in UV chamber, amber vial wrapped in aluminum foil) was “white” and the “Appearance, Dark Crtl-Light” value ([4]; dark control in visible light chamber, amber vial wrapped in aluminum foil) was “white”. The “degradation under dark conditions” value ([4]; dark controls, UPLC) was “does not degrade”, the “degradation upon exposure to visible or UV light, in words” value ([4]; visible and UV light, UPLC) was “degraded” and the “Appearance, Light-exposed” value ([4]; visible light 1.2 million lux hours, clear sealed vial, listed as TBR-760 acetate salt) was “white to yellow-brown”. For the same compound, the compound degraded ([5]; 4 weeks at 60° C. and ambient humidity) was “greater than 5%”, the thermostability in words ([5]; increasing temperature and humidity (25° C./60% RH, 40° C./75% RH, 60° C.) up to 4 weeks) was “does not maintain stability” and the “visible appearance after exposure to visible and UV light” value [6] was “from a white salt (control) to a yellow/brown salt”.
